Reference: PMC5484120 (Marine Drugs, 2017)
Where “and” joins values, the source holds several entries; their conditions need not be identical. Identical values can stand only once.

Target: T1, hα9α10 nAChR (Homo sapiens, UniProt Q9GZZ6+Q9UGM1)
T1 construct: expressed in transfected cells; host or cells: Xenopus laevis oocytes injected with cRNA
Assay: cell-based
Assay type: cell-based

T1 sequence (Q9UGM1 26-479 limits assumed): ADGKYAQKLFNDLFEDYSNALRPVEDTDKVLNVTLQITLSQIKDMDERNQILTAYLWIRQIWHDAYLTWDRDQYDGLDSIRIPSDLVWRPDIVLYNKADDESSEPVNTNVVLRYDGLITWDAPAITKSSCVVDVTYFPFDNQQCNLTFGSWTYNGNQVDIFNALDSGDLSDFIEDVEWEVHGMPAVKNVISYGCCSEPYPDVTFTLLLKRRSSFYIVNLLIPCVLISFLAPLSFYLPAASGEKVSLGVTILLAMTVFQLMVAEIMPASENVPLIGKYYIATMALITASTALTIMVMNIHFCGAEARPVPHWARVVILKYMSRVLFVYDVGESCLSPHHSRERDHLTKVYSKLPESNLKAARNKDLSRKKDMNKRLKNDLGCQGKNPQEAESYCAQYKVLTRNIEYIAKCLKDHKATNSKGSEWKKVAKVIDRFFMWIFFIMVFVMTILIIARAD
T1 sequence (Q9GZZ6 25-450): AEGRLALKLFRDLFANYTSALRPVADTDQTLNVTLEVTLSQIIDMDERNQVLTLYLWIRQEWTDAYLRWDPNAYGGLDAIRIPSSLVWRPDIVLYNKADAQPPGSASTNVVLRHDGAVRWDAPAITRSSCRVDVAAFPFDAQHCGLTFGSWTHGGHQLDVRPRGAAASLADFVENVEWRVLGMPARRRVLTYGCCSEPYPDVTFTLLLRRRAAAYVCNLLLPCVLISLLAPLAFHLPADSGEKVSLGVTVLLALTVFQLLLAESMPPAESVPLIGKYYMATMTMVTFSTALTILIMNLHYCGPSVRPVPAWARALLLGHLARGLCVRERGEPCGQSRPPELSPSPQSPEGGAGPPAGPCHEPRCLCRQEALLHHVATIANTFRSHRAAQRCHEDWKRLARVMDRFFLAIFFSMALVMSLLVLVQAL

CSCC[C@H](NC(=O)[C@H](CC(C)C)NC(=O)[C@H](C)N)C(=O)N[C@@H](CO)C(=O)N[C@H](C(=O)NCC(=O)N[C@H](C(=O)N[C@@H](CC(N)=O)C(=O)N[C@@H](Cc1ccc(O)cc1)C(=O)N[C@@H](CCCNC(=N)N)C(=O)N[C@@H](CC(C)C)C(=O)N[C@@H](CC(C)C)C(=O)N[C@@H](CCCCN)C(=O)N[C@H](C(=O)N[C@@H](CSCC(N)=O)C(=O)N[C@@H](CCCNC(=N)N)C(=O)NCC(=O)N[C@@H](CO)C(=O)NCC(=O)N[C@@H](CCCNC(=N)N)C(=O)N[C@@H](Cc1ccc(O)cc1)C(=O)N[C@@H](CSCC(N)=O)C(=O)N[C@@H](CCCNC(=N)N)C(=O)N[C@@H](CO)C(=O)N1CCC[C@H]1C(=O)N[C@@H](Cc1ccc(O)cc1)C(=O)O)[C@@H](C)O)[C@@H](C)O)[C@@H](C)O [GeXXVIIA-L-Nter]
IC50: 222 ± 14 nM | inhibition of ACh-evoked current, hα9α10 nAChR: > 90% and ~ 55%
